Consider three compounds from patent publication US10561748B2, “Anthranilic acid derivatives” (priority 2014, dated 2020).

In one data set the target is T1, BCRP (Homo sapiens, UniProt Q9UNQ0).
T1 construct: expressed in transfected cells; host or cells: MDCK-BCRP
T1 sequence (Q9UNQ0 1-655): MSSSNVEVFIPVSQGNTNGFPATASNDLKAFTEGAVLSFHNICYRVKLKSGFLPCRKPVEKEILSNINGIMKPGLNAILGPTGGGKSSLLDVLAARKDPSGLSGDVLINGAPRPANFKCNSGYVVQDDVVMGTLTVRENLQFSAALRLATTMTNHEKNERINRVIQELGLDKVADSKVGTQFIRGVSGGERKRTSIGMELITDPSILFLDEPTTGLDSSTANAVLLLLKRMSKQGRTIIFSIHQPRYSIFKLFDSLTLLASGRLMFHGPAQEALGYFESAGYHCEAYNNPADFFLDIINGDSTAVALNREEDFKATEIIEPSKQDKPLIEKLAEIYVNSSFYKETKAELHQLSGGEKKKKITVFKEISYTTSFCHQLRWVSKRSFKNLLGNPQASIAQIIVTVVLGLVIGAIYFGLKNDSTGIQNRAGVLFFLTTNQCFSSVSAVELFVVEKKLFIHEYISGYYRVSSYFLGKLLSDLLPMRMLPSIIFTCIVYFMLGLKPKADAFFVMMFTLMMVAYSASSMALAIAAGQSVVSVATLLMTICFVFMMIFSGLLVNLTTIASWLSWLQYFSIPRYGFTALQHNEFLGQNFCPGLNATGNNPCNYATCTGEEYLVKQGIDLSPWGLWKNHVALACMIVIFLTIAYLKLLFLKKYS
Kind of data set: Activity in MDCK-BCRP cells, fluorescent probe Rhodamine. It counts as cell-based. From the text: (§1) • A. Three different cell lines have been employed: MDCK-P-gp (fluorescent probe Calcein-AM), MDCK-BCRP (florescent probe Rhodamine) and MDCK-MRP1 (fluorescent probe Calcein-AM). These cells overexpress stably human P-gp or BCRP or MRP1. • i.

A short description of data set [1]: Metabolites (human microsomes), unchanged form. In kind it is in vitro ADME. From the text:
Metabolites (Human Microsomes)

The nature of data set [2]: Metabolic stability by rat liver microsomes. In kind it is in vitro ADME. Here is the method:
Metabolic stability of compound of Formula la was evaluated by incubating test compounds with rat liver microsomes and monitoring parent disappearance within 30 mins using HPLC.
• Column: KINE IEX-C18 • Column temperature: 40° C. • Mobile phase: Gradient. A was 0.1% formic acid in water. B was MeCN. A:B 95:5 to 30:70 over 10 min, to 20:80 over 5 min. • Flow rate: 0.5 ml/min • Injection volume: 50 μL
FIG. 5 illustrated a Chromatogram of Formula la incubated with microsomes fraction only without NADPH regenerating system wherein 489.88 mAU*s represents ligand concentration after incubation Ccontrol. FIG. 6 illustrates a Chromatogram of compound of Formula 1a incubated in the presence of microsomes and NADPH regenerating system wherein 429.56 mAU*s represents ligand concentration Cparent.

Data set [3] has as its system P-gp. Kind of data set: Apparent permeability in Caco-2 cells (BA/AB). It counts as in vitro ADME. The following applies: human, BA/AB >2 = transported by P-gp, read-out: Apparent Permeability (B→A/A→B). (In general: Caco-2 cells form a polarised layer with tight junctions and transporters.)
Description: Ligands displaying BA/AB >2 are transported while ligands having BA/AB <2 are not transported by P-gp.
Caco-2 cells were seeded onto a Millicell assay system (Millipore), where a cell monolayer is set in between a filter cell and a receiver plate, at a density of 10,000 cells/well. The culture medium was replaced every 48 h and the cells kept for 21 days in culture. The Trans Epithelial Electrical Resistance (TEER) of the monolayers was measured daily, before and after the experiment, using an epithelial voltohometer (Millicell-ERS). Generally, TEER values greater than 1000× for a 21 day culture, are considered optimal. Caco-2 cells were seeded onto a Millicell assay system (Millipore), where a cell monolayer is set in between a filter cell and a receiver plate, at a density of 10,000 cells/well. The culture medium was replaced every 48 h and the cells kept for 21 days in culture. The Trans Epithelial Electrical Resistance (TEER) of the monolayers was measured daily, before and after the experiment, using an epithelial voltohometer (Millicell-ERS). Generally, TEER values greater than 1000× for a 21 day culture, are considered. After 21 days of Caco-2 cell growth, the medium was removed from filter wells and from the receiver plate, which were filled with fresh MSS buffer (Invitrogen). […] The apparent permeability (Papp), in units of nm/s, was calculated.
Data set [4] is described as follows: Everted gut sac: crossing to mucosal compartment and stability. In kind it is in vitro ADME. The method, then:
The compound of Formula la has been inserted in serosal compartment of […] and for 120 mins has been tested: • 1. The concentration in mucosal compartment • 2. The stability in serosal/mucosal compartment

A further data set deals with T2, MRP1 (Homo sapiens, UniProt P33527).
T2 construct: expressed in transfected cells; host or cells: MDCK-MRP1
Kind of data set: Activity in MDCK-MRP1 cells, fluorescent probe Calcein-AM. It counts as cell-based.
Source text: as §1

Data set [5] deals with plasma proteins based on human serum albumin and human α1 acid glycoprotein. Kind of data set: Protein Plasma Binding (PPB) assay (TRANSIL). It counts as in vitro ADME. The note with it: read-out: kD (dissociation constant, plasma protein binding). The method, then: (§2) Plasma protein binding is measured in terms of the dissociation constant KD: KD=[compound 1a] [P]/[compound 1a-P], wherein [compound 1a-P] is the concentration of compound of Formula 1a bound to the protein P and where [compound 1a] denotes the free concentration of compound of Formula 1a and [P] denotes the free concentration of protein. […] This means there is high free unbound radiotracer available to bind with the target protein for detection.
(§3) fb represents an estimation of the fraction bound to plasma proteins based on human serum albumin and human α1 acid glycoprotein. Binding to other low abundance plasma proteins like lipoproteins, transcortin, and sex hormone binding protein is not considered.
(§4) The TRANSIL Quality Index (TQI) is based on five independent measures derived from the data analysis. For each individual measure a partial quality score on a scale between 0 and 10 is attributed to the estimate. 0 represents lowest quality, while 10 represents highest quality. The final quality index is a weighted average of the partial quality scores.
(§5) Plasma protein binding is measured in terms of the dissociation constant KD: KD=[TQD]

Data set [6] in a line: Protein Plasma Binding (PPB) assay (TRANSIL). In kind it is in vitro ADME, human. The note with it: human serum albumin and human α1 acid glycoprotein (TRANSIL); for fraction unbound: estimation based on human serum albumin and human α1 acid glycoprotein, read-out: fb (fraction bound to plasma proteins) (converted); for Kd: human, read-out: kD (dissociation constant, plasma protein binding). The method, then:
as §2, §3, §4, §5

The subject of the next data set is MDCK-MDR1. Kind of data set: Cytotoxicity, MTT assay. The note with it: 100 microM. In kind it is cell-based. Here is the method:
Determination of cell growth was performed using the MTT assay at 24 and 48 h. On day 1, 30,000 cells/well were seeded into96-well plates in a volume of 100 μL. On day 2, the various drugs concentration (0.1-100 μM) were added. In all the experiments, the various drug-solvents (ethanol, DMSO) were added in each control to evaluate a possible solvent cytotoxicity. After the established incubation time with compound of Formula 1a, MTT(0.5 mg/mL) was added to each well, and after 3 h incubation at 37° C., the supernatant was removed.

Data set [7] deals with T3, P-gp (Homo sapiens, UniProt P08183). Kind of data set: ATP-ase cell depletion (luminescence) in MDCK-MDR1 cells. It counts as cell-based. The arrangement: expressed in transfected cells; host or cells: MDCK-P-gp (MDCK cells stably overexpressing human P-gp). The note with it: at 1 μM, 2 h. Here is the method: In order to establish the intrinsic mechanism of compound of Formula la in […] has been defined if it was able to deplete ATP. Compound able to deplete ATP can be considered P-gp substrate while ligand unable to deplete ATP is considered P-gp inhibitor.
The MDCK-MDR1 cells were seeded into 96-well microplate in 100 μL of complete medium at a density 2×10^4 cells/well. The plate was incubated overnight in a humidified atmosphere 5% CO2 at 37° C. The medium was removed and 100 μL of complete medium in the presence or absence of different concentrations of compound of Formula 1a was added. The plate was incubated for 2 h in a humidified atmosphere 5% CO2 at 37° C. Fifty microlitres of mammalian cell lysis solution was added to all wells and the plate was shaken for 5 min in an orbital shaker. Fifty microlitres of substrate solution was added to all wells and the plate was shaken for 5 min in an orbital shaker. The plate was dark adapted for 10 min and the luminescence was measured.

In data set [8] the target is T3, P-gp. Kind of data set: cell-based.
Source text: as §1

In data set [9] the test system is P-gp. Kind of data set: In vivo bio-distribution, microPET/CT brain uptake. The arrangement: species or system mice. Here is the method:
A set of wild type mice subjects were injected with compound of formula 1b (i.e. [^18F]-labeled compound of formula 1a). Immediately after injection of the tracer compound, scanning was performed on the subject using a microPET/CT system. The study was conducted in deep anaesthesia (oxygen/1.5-2 isoflurane w/o drug-induction) and the animals were treated by adhering to regulatory, ethical and Animal Welfare guidelines subsequent to obtaining approvals. […] The extraction remained constant for the duration of the study and was indicative of a possible selective binding to brain structures.

Data set [10] addresses T3, P-gp. The arrangement: expressed in transfected cells; host or cells: MDCK-P-gp (MDCK cells stably overexpressing human P-gp). The following applies: literature value; read-out: EC50 as reported in Kazunori Kawamura, et al.; cited from earlier work.

Each structure is given as a SMILES string. Read-outs that look alike come from different tables or passages of the source.

T3 sequence (P08183 whole entry): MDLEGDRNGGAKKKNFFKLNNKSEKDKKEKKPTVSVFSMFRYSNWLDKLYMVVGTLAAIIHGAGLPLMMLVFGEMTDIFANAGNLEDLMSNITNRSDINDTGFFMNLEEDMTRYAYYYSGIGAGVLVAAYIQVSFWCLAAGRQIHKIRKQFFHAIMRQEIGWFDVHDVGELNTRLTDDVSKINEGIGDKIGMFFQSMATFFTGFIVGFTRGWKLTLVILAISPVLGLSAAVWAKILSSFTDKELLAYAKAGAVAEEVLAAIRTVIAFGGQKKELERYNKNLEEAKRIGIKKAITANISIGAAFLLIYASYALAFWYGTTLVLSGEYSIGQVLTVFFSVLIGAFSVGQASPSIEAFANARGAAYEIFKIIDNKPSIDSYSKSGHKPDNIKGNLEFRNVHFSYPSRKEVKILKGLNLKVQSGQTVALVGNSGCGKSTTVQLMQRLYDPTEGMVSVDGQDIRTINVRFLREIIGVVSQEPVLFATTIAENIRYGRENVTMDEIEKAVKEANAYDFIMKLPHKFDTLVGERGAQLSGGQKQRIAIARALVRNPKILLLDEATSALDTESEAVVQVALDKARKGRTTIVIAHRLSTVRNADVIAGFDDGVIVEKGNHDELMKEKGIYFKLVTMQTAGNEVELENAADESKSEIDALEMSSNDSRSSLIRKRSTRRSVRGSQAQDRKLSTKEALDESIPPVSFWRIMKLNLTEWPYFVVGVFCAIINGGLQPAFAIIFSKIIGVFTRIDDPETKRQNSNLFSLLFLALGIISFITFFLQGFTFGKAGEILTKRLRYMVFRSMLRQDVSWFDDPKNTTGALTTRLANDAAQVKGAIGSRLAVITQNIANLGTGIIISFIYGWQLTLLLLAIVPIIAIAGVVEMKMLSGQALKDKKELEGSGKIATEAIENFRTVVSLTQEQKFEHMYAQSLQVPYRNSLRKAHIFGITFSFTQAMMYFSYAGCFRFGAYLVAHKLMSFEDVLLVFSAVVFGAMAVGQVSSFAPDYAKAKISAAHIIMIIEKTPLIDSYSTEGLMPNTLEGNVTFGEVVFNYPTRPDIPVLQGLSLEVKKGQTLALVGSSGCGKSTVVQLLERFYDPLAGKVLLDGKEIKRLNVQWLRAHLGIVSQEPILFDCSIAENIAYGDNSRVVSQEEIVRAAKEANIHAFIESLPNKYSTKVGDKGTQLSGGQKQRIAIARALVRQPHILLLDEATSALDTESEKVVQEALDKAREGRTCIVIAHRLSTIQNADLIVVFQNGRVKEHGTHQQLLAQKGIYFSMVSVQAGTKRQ
T2 sequence (P33527 whole entry): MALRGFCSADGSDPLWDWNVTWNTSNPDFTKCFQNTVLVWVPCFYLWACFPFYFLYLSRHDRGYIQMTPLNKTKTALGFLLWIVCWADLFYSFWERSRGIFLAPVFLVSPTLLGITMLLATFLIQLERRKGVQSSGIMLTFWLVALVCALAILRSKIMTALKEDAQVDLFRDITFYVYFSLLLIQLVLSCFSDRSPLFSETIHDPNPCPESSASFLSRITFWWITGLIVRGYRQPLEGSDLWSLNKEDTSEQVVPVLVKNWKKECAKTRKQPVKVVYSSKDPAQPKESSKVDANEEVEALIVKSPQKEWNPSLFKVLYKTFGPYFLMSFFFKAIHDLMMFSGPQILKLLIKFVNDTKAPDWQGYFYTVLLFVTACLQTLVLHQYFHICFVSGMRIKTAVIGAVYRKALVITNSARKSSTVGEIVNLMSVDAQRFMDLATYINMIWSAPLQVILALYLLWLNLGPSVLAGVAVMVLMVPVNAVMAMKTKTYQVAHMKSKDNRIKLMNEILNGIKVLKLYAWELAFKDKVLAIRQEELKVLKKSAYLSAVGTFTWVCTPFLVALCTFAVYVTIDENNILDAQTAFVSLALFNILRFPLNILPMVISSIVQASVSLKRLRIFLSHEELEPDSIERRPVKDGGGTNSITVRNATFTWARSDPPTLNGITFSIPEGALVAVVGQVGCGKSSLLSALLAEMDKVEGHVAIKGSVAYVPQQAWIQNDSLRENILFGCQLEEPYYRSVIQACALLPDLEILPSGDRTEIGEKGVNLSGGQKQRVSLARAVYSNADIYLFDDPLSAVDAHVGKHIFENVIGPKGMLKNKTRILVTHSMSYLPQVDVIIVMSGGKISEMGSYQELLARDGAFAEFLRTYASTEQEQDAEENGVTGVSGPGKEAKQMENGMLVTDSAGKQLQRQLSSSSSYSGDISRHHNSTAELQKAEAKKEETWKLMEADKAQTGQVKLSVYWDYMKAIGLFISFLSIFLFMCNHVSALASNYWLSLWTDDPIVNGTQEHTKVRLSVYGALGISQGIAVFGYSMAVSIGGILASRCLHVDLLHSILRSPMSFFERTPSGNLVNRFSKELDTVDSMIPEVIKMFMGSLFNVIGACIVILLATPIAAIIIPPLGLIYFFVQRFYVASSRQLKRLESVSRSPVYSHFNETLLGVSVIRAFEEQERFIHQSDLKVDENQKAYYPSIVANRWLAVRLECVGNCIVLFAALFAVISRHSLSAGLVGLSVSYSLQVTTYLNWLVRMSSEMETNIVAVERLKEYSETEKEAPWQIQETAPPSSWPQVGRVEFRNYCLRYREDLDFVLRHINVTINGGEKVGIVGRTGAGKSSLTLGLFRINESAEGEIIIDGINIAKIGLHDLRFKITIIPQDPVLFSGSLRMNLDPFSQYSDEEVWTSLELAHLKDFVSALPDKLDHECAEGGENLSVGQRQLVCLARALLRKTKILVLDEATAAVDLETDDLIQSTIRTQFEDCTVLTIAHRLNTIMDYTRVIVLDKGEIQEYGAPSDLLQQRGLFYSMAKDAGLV

The EC50 is the midpoint of the concentration-response curve. The term Kd denotes the constant that tells how readily two partners part at equilibrium. Consider `COc1cc(NC(=O)c2cnc3ccccc3c2)c(C(=O)Nc2ccc(CCN3CCc4cc(OCCF)c(OC)cc4C3)cc2)cc1OC` [Formula 1a, N-(2-((4-(2-(6-(2-fluoroethoxy)-7-methoxy-3,4-dihydroisoquinolin-2(1H)-yl)ethyl)phenyl)carbamoyl)-4,5-dimethoxyphenyl)quinoline-3-carboxamide], for which the EC50 at BCRP was greater than 0.5 µM; on MRP1 it was greater than 0.5 µM; at P-gp [8] it was 0.008 µM. The results for the “Unchanged form (%)” value in data set [1] (after 30 min) and in [1] (after 60 min) were 91% and 85%, respectively. Besides, the “% remaining at 30 min” value in [2] was found to be 88%. In addition, the efflux ratio at 120 min with P-gp [3] was found to be 16 ± 0.7. In addition, the “Stability in serosal compartment” value in [4] (after 60 min) was 83%; in data set [4] (after 120 min), 75%. The “Crossing into the mucosal compartment” value in data set [4] (inserted in serosal compartment, 120 mins) is listed as “unable to cross into the mucosal compartment”. Also, the Kd in [5] and in [6] was 717 µM throughout. In data set [6], the fraction unbound is 0.539. Besides, the “Cytotoxicity (MTT)” value is 5% in the data set on MDCK-MDR1 (24 h) and 15% in the data set on MDCK-MDR1 (48 h). For the same compound, at P-gp [7], the ATP-ase cell depletion turned out to be 20%. Also, the “P-gp EC50” value at P-gp [8] is on record as 8,0±0.2 nM.

With `COc1cc(NC(=O)c2cnc3ccccc3c2)c(C(=O)Nc2ccc(CCN3CCc4cc(OCC[18F])c(OC)cc4C3)cc2)cc1OC` [Formula 1b], the “Brain uptake (microPET)” value in the data set with P-gp [9] (P-gp knock-out mice (MDR 1a/b −/−)) was “same reduction of uptake at brain level”; with P-gp [9] (wild type mice, co-injection of tariquidar), “strongly reduced”; in the data set with P-gp [9] (wild type mice, tracer alone), “binding of radiolabeled compound of formula 1b at brain level”.

On to `COc1cc2c(cc1OC)CN(CCc1ccc(NC(=O)c3cc(OC)c(OC)cc3NC(=O)c3cnc4ccccc4c3)cc1)CC2` [Tariquidar, reference compound], for which the EC50 on BCRP is greater than 0.08 µM; at MRP1, greater than 0.5 µM; at P-gp [10], 0.024 µM. The fraction unbound in data set [6] was 0.095. The Kd in data set [6] worked out at 64.7 µM. For the same compound, the “Cytotoxicity (MTT)” value in the data set with MDCK-MDR1 (24 h) came to 8%; with MDCK-MDR1 (48 h), 19%. On P-gp [7], this compound registered an ATP-ase cell depletion of 30%. Moreover, the “P-gp EC50” value at P-gp [8] is on record as 4,0±0.2 nM.
